Experimental data: patent US9072746B2, “Method for enhancing learning and memory impaired by neurodegenerative disorders and compounds and compositions for effecting the same” (The Board of Trustees of the Leland Stanford Junior …, priority 2010, dated 2015)
“Also recorded” adds a separate entry of the source.

How the values were obtained:
[1] = tested on: C57Bl/6J mice; experiment: Contextual fear conditioning memory retrieval (FIG. 10A, B); assay type: in vivo; settings: betaxolol 1 mg/kg, atenolol 3 mg/kg s.c.
Method: In all experiments xamoterol 3 mg/kg, atenolol 3 mg/kg, and betaxolol 1 mg/kg were injected subcutaneously. […] Results are shown as mean+SEM (ns=not significant, *=p<0.05, and **=p<0.01).

[2] = tested on: male Ts65Dn mice; experiment: T-maze spontaneous alternation; assay type: in vivo; settings: betaxolol 1 mg/kg s.c. plus xamoterol 3 mg/kg s.c.
Source text: The T-maze had 3 equal arms (30 cm length, 10 cm width, and 20 cm height). The start arm and 2 goal arms had guillotine gates. This test was based on the rodents' preference to experience a new arm of the T-maze instead of a familiar one ([…], 1998). In each trial, the mouse was placed in the start arm. The gate was then opened and the mouse was able to freely explore the arms. As soon as the mouse entered one goal arm, the sliding gate of the other goal arm closed. The mouse eventually returned to the start arm and the next trial was started. In the next trial, the mouse may recognize the previously chosen goal arm and choose to explore a new arm rather than revisit the previously visited arm. This trial was repeated 11 times per day for 3 consecutive days, for a total of 33 trials. The maze was cleaned with 50% ethanol between trials to eliminate odor. Percent of alternation (number of turns in each goal arm) was used for analysis. This protocol has been described before by Belichenko et al. (2009) and is modified from a Deacon and Rawlins (2006) protocol (Deacon and Rawlins, 2006; Belichenko et al., 2009). […] In this part of the study, activity chamber and three cognitive tests, including T-maze spontaneous alternation, contextual fear conditioning (CFC), and novel object recognition were performed. In T-maze spontaneous alternation and contextual fear conditioning, both Ts65Dn and 2N male mice were divided into three treatment groups including normal saline (Vehicle), xamoterol, and betaxolol plus xamoterol groups. In the novel object recognition test, both Ts65Dn and 2N male mice were divided into two treatment groups, normal saline and xamoterol. The T-maze was performed exactly as previously described. […] On the first day (training day), animals were placed in the fear conditioning chamber, and after a 3-minute pre-shock period, they were exposed to 5 shocks (2 s, 0.5 mA,) with inter-trial intervals of 80 seconds and no tone. On the second day, the animals first received xamoterol, xamoterol plus betaxolol, or saline injection, and one hour later, they were placed in the same chamber for 5 minutes. Similar to the previous description of fear conditioning, freezing was defined as the complete lack of motion for a minimum of o.75 second. The Novel Object Recognition task is conducted in an open field arena (40 cm×40 cm). Mice were habituated in the testing room for 1 hour followed by 5 minutes habituation inside the arena without any objects. On 4th day animals were introduced 3 times to arena with 3 identical subjects for 10 minutes with 3 minutes inter trial intervals. On 5th day (24 hours after trainings) one of the objects replaced by a novel one and the time sniffing of each object were used for analysis. For testing the role of β1 adrenergic system, xamoterol and betaxolol (Tocris Bioscience, Ellisville, Mo.) were injected subcutaneously using 10 ml/kg normal saline as vehicle. Xamoterol, (3 mg/kg) was given one hour before testing and betaxolol (1 mg/kg) was given 30 minutes before testing.

[3] = tested on: male Ts65Dn mice; experiment: Contextual fear conditioning; assay type: in vivo; settings: betaxolol 1 mg/kg s.c. plus xamoterol 3 mg/kg s.c.
Method: Contextual and Cued fear conditioning was conducted for evaluation of fear-dependent learning and retrieval in the study. The test was performed using chambers from Coulbourn Instruments (Whitehall, Pa.). On the first day, the animals were placed in a chamber (Context A) for 3 min for baseline recording, followed by 5 tone-shock pairings. The shock (0.5 mA, 2 sec) was delivered following the tone (70 dB, 2 kHz, 20 sec) in each conditional/unconditional stimulus pairing. On the second day a novel chamber (Context B; new room, new olfactory environment, texture of floor, blue plastic inserts for walls, extra source of blue light, and visual cues) was used for cued testing. Three tones without shocks were presented to animals during a 3 min testing period following a 3 min pre-tone period. On the last day of the experiment, the mice were placed in Context A for 5 min without any conditional and unconditional stimulus {modified from the method described by (Saxe et al., 2006)}. Freezing was defined as the complete lack of motion for a minimum of 0.75 second as measured by FreezeFrame software (Actimetrics, Evanston, Ill.). The percent of freezing in each period was reported. For the startle response control test, an acoustic startle reflex apparatus (Med Associates Inc., St. Albans, Vt.) was used. The subjects were acclimated to the animal holder in the startle box for a total of 15 min over 3 consecutive-days prior to the experiment. The animals were exposed to 25 different trials with 10-20 second randomly variable inter-trial intervals. Five different intensities of startle pulses, 0, 90, 100, 110, and 120 dB, were randomly used, and each animal was randomly exposed 5 times to each intensity of the startle pulse. The duration of each startle pulse was 40 ms and the peak amplitude of the startle response in each trial was recorded for analysis. The holding cage on the apparatus was cleaned with 10% alcohol between each animal. […] In this part of the study, activity chamber and three cognitive tests, including T-maze spontaneous alternation, contextual fear conditioning (CFC), and novel object recognition were performed. In T-maze spontaneous alternation and contextual fear conditioning, both Ts65Dn and 2N male mice were divided into three treatment groups including normal saline (Vehicle), xamoterol, and betaxolol plus xamoterol groups. In the novel object recognition test, both Ts65Dn and 2N male mice were divided into two treatment groups, normal saline and xamoterol. The T-maze was performed exactly as previously described. […] On the first day (training day), animals were placed in the fear conditioning chamber, and after a 3-minute pre-shock period, they were exposed to 5 shocks (2 s, 0.5 mA,) with inter-trial intervals of 80 seconds and no tone. On the second day, the animals first received xamoterol, xamoterol plus betaxolol, or saline injection, and one hour later, they were placed in the same chamber for 5 minutes. Similar to the previous description of fear conditioning, freezing was defined as the complete lack of motion for a minimum of o.75 second. The Novel Object Recognition task is conducted in an open field arena (40 cm×40 cm). Mice were habituated in the testing room for 1 hour followed by 5 minutes habituation inside the arena without any objects. On 4th day animals were introduced 3 times to arena with 3 identical subjects for 10 minutes with 3 minutes inter trial intervals. On 5th day (24 hours after trainings) one of the objects replaced by a novel one and the time sniffing of each object were used for analysis. For testing the role of β1 adrenergic system, xamoterol and betaxolol (Tocris Bioscience, Ellisville, Mo.) were injected subcutaneously using 10 ml/kg normal saline as vehicle. Xamoterol, (3 mg/kg) was given one hour before testing and betaxolol (1 mg/kg) was given 30 minutes before testing.

[4] = tested on: Ts65Dn mice; settings: restoration of norepinephrine level; cited from earlier work
[5] = tested on: Ts65Dn mice; settings: restoration of norepinephrine level; cited from earlier work; remark: listed apart in the source

CC(C)NCC(O)COc1ccc(CC(N)=O)cc1 (stereo not drawn) [atenolol]
effect on memory retrieval of contextual fear conditioning [1]: did not have such an effect

CC(C)NCC(O)COc1ccc(CCOCC2CC2)cc1 (stereo not drawn) [betaxolol]
effect on memory retrieval of contextual fear conditioning [1]: impaired | effect of betaxolol on xamoterol's rescue of spontaneous alternation [2]: completely reversed; also recorded: prevented or blocked; also recorded: blocked; also recorded: betaxolol prevents this effect | effect of betaxolol on xamoterol's rescue of contextual fear conditioning [3]: completely reversed; also recorded: prevents or blocks; also recorded: completely blocked; also recorded: betaxolol prevents this effect

N[C@H](C(=O)O)[C@H](O)c1ccc(O)c(O)c1 [L-DOPS, L-threo-3,4-dihydroxyphenylserine]
effect on hippocampal-mediated contextual deficit in fear conditioning [4]: restored | effect on nesting behavior [5]: restored
